Experiment [1] has as its system Zaire Ebola virus (ZEBOV). Particulars: cited from earlier work.
Experiment [2] has as its system Venezuelan equine encephalitis virus (VEEV). Particulars: cited from earlier work.
Another experiment concerns Acinetobacter baumannii. Conditions: loaded into MCM-41 host, visible light 100 milliWatts per square centimeter; cited from earlier work.
The subject of experiment [3] is B16 melanoma cells. The experiment can be described thus: CellTiter-Glo luminescence (cell viability) versus TMP concentration, with or without Cherenkov light. The experiment is classed as cell-based. Conditions: 6 MV x-rays at 2 Gy, 48-hour incubation, with Cherenkov light vs without.
Experiment [4] deals with B16 melanoma cells. The experiment can be described thus: Flow cytometry of MHC class I expression after X-ray/Cherenkov exposure. The experiment is classed as cell-based. Conditions: 72 hour incubation.

For the compound `[N-]=[N+]=Nc1cccc2c(I)cccc12` [INA, 1,5-iodonaphthyl-azide], the “virus infectivity after INA treatment” value in experiment [1] is given as “completely noninfectious”. The virus inactivation entry in experiment [2] is recorded as “efficiently inactivate”.
In the case of [Mn(PaPy3)(NO)](ClO4) [{Mn—NO}], the “clearing of bacteria by released nitric oxide” value with Acinetobacter baumannii is reported as “effectively cleared the bacteria”.
Consider `Cc1cc2cc3c(C)cc(=O)oc3c(C)c2o1` [TMP, 4,5′,8-trimethyl psoralen], for which the “cell viability / cell kill” value with B16 melanoma cells [3] is reported as “cell viability is reduced”. The figures for the “MHC 1 expression” value in the experiment on B16 melanoma cells [4] (15 MV X-ray exposure with Cherenkov light), in the experiment with B16 melanoma cells [4] (control with no Cherenkov (x-rays only)) and in the experiment on B16 melanoma cells [4] (control with no x-rays) were 13.7%, 8.01% and 5.46%, respectively.

These data come from patent publication US11786595B2, “Methods for radiotherapy to trigger light activation drugs” (priority 2015, dated 2023).
